Data reported in the supplement of paper PMC8967900.

Assays:
Test in all cases: selective drug sensitivity score (sDSS, relative to normal bone marrow) (sDSS (score)); higher = more potent and effective on the cell line relative to normal bone marrow cells
Conditions in all cases: 72 h
697 = tested on: 697
ALL-SIL = tested on: ALL-SIL
CCRF-CEM = tested on: CCRF-CEM
CCRF-HSB2 = tested on: CCRF-HSB2
COG-LL-394h = tested on: COG-LL-394h
COG-LL-402h = tested on: COG-LL-402h
JURKAT = tested on: JURKAT
KASUMI-10 = tested on: KASUMI-10
KOPN-8 = tested on: KOPN-8
MHH-CALL-3 = tested on: MHH-CALL-3
MN-60 = tested on: MN-60
MOLT-16 = tested on: MOLT-16
NALL-1 = tested on: NALL-1
NALM-16 = tested on: NALM-16
P12-ICHIKAWA = tested on: P12-ICHIKAWA
PF-382 = tested on: PF-382
RCH-ACV = tested on: RCH-ACV
REH = tested on: REH
SEM cells = tested on: SEM cells
SUP-B15 = tested on: SUP-B15
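Note: ALL cell lines in 384-well plates, five doses spanning 10,000-fold, each plate scaled between vehicle and 100 µmol/L benzalkonium chloride controls, sDSS an adapted area-under-curve metric.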

| SMILES | selective drug sensitivity score 697 | selective drug sensitivity score (ALL-SIL) | selective drug sensitivity score (CCRF-CEM) | selective drug sensitivity score (CCRF-HSB2) | selective drug sensitivity score (COG-LL-394h) | selective drug sensitivity score (COG-LL-402h) | selective drug sensitivity score (JURKAT) | selective drug sensitivity score (KASUMI-10) | selective drug sensitivity score (KOPN-8) | selective drug sensitivity score (MHH-CALL-3) | selective drug sensitivity score (MN-60) | selective drug sensitivity score (MOLT-16) | selective drug sensitivity score (NALL-1) | selective drug sensitivity score (NALM-16) | selective drug sensitivity score (P12-ICHIKAWA) | selective drug sensitivity score (PF-382) | selective drug sensitivity score (RCH-ACV) | selective drug sensitivity score (REH) | selective drug sensitivity score (SEM cells) | selective drug sensitivity score (SUP-B15) |
| --- | --- | --- | --- | --- | --- | --- | --- | --- | --- | --- | --- | --- | --- | --- | --- | --- | --- | --- | --- | --- |
| CC[C@]1(O)C[C@H]2CN(CCc3c([nH]c4ccccc34)[C@@](C(=O)OC)(c3cc4c(cc3OC)N(C)[C@H]3[C@@](O)(C(=O)OC)[C@H](OC(C)=O)[C@]5(CC)C=CCN6CC[C@]43[C@@H]65)C2)C1 [Vinblastine] (top concentration 1000 nM) | 12.5 | 5.2 | -1.5 | -3.4 | -0.1 | 4.6 | 0.5 | -1 | 12.8 | -0.1 | -2.4 | 0.7 | -3.8 | 5.4 | -3.5 | -5.3 | 14.4 | 7.1 | 10.8 | 12.9 |
| CC[C@]1(O)C[C@H]2CN(CCc3c([nH]c4ccccc34)[C@@](C(=O)OC)(c3cc4c(cc3OC)N(C=O)[C@H]3[C@@](O)(C(=O)OC)[C@H](OC(C)=O)[C@]5(CC)C=CCN6CC[C@]43[C@@H]65)C2)C1 [Vincristine] (top concentration 1000 nM) | 17 | 13.1 | 4.42 | 1.62 | 3.92 | 13.7 | 4.52 | 4.72 | 15.8 | 4.22 | -1.58 | 9.52 | -0.88 | 12.3 | 4.52 | -0.18 | 17.2 | 17.5 | 12.7 | 18.5 |
| FC(F)c1nc2ccccc2n1-c1nc(N2CCOCC2)nc(N2CCOCC2)n1 [ZSTK474] (top concentration 10000 nM) | 8.46 | 2.46 | 9.36 | 3.76 | 0.86 | 13.6 | 1.76 | 0.96 | 11.9 | 10.3 | 0.36 | 6.46 | 1.96 | 0.56 | 3.66 | 5.66 | 28.4 | 9.36 | 5.66 | 2.56 |
